The record followed here is patent publication US20120040955A1 (priority 2009, published 2012).

By IC50 is commonly meant the concentration at which inhibition is half-maximal. The low end stands for greater potency in that assay, the high end for weaker potency in that assay.

Test [1] addresses T1, JAK3 (Homo sapiens, UniProt P52333).
T1 construct: endogenous in cells; host or cells: Mixed Molt4 / Ramos cell lysate (1:2)
T1 sequence (P52333 1-1124): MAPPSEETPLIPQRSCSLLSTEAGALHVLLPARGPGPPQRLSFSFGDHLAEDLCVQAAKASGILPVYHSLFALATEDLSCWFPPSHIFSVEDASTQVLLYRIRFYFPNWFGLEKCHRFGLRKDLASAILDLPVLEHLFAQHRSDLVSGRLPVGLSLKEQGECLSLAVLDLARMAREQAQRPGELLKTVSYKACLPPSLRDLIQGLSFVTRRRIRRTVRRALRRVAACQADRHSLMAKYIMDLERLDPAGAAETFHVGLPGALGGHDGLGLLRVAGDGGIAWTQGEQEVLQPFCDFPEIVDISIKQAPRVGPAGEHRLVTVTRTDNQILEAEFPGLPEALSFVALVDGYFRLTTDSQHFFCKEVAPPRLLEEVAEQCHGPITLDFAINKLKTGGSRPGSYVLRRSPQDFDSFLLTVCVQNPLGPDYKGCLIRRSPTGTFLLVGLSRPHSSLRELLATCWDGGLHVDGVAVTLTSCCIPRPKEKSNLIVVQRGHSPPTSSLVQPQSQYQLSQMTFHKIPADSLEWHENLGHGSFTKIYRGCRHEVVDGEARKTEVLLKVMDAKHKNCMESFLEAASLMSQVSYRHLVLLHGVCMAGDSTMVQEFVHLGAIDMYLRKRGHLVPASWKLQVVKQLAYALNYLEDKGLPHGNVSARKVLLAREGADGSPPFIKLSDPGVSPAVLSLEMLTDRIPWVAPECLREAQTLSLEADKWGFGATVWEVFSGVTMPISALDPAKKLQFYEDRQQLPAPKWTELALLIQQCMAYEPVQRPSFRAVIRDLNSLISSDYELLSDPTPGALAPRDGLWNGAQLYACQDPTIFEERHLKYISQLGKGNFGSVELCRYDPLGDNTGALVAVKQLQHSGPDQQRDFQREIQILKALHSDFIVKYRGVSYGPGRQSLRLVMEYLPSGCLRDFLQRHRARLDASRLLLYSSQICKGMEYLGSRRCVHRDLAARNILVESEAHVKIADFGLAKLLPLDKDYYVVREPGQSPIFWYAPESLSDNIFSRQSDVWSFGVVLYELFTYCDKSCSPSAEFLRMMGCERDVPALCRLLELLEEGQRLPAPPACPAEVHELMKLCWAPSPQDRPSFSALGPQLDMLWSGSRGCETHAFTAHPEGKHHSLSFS
The test can be described thus: kinobeads assay (competition with affinity matrix in mixed Molt4/Ramos cell lysate, dot blot detection), JAK3. To be noted: activity level. Type of test: binding. The method, then: (§1) The compounds of the present invention as described in the previous examples were tested in a kinobeads assay as described for ZAP-70 (WO-A 2007/137867). Briefly, test compounds (at various concentrations) and the affinity matrix with the immobilized aminopyrido-pyrimidine ligand 24 were added to cell lysate aliquots and allowed to bind to the proteins in the lysate sample. After the incubation time the beads with captured proteins were separated from the lysate. Bound proteins were then eluted and the presence of, JAK2 and JAK3 was detected and quantified using specific antibodies in a dot blot procedure and the Odyssey infrared detection system. Dose response curves for individual kinases were generated and IC50 values calculated. Kinobeads assays for ZAP-70 (WO-A 2007/137867) and for kinase selectivity profiling (WO-A 2006/134056) have been previously described.
(§2) 5× DP buffer: 250 mM Tris-HCl pH 7.4, 25% Glycerol, 7.5 mM MgCl2, 750 mM NaCl, 5 mM Na3VO4; filter the 5× DP buffer through a 0.22 μm filter and store in aliquots at −80° C. The 5× DP buffer is diluted with H2O to 1× DP buffer containing 1 mM DTT and 25 mM NaF.
(§3) Stock solutions of test compounds were prepared in DMSO. In a 96 well plate 30 μl solution of diluted test compounds at 5 mM in DMSO were prepared. Starting with this solution a 1:3 dilution series (9 steps) was prepared. For control experiments (no test compound) a buffer containing 2% DMSO was used.
(§4) Molt4 cells (ATCC catalogue number CRL-1582) and Ramos cells (ATCC catalogue number CRL-1596) were grown in 1 litre Spinner flasks (Integra Biosciences, #182101) in suspension in RPMI 1640 medium (Invitrogen, #21875-034) supplemented with 10% Fetal Bovine Serum (Invitrogen) at a density between 0.15×10^6 and 1.2×10^6 cells/ml. Cells were harvested by centrifugation, washed once with 1× PBS buffer (Invitrogen, #14190-094) and cell pellets were frozen in liquid nitrogen and subsequently stored at −80° C. Cells were homogenized in a Potter S homogenizer in lysis buffer: 50 mM Tris-HCl, 0.8% NP40, 5% glycerol, 150 mM NaCl, 1.5 mM MgCl2, 25 mM NaF, 1 mM sodium vanadate, 1 mM DTT, pH 7.5. One complete EDTA-free tablet (protease inhibitor cocktail, Roche Diagnostics, 1873580) per 25 ml buffer was added. The material was dounced 10 times using a mechanized POTTER S, transferred to 50 ml falcon tubes, incubated for 30 minutes on ice and spun down for 10 min at 20,000 g at 4° C. (10,000 rpm in Sorvall SLA600, precooled). The supernatant was transferred to an ultracentrifuge (UZ)-polycarbonate tube (Beckmann, 355654) and spun for 1 hour at 100.000 g at 4° C. (33.500 rpm in Ti50.2, precooled). The supernatant was transferred again to a fresh 50 ml falcon tube, the protein concentration was determined by a Bradford assay (BioRad) and samples containing 50 mg of protein per aliquot were prepared. The samples were immediately used for experiments or frozen in liquid nitrogen and stored frozen at −80° C.
(§5) Cell lysate (approximately 50 mg protein per plate) was thawed in a water bath at room temperature and then kept on ice. To the thawed cell lysate 1× DP 0.8% NP40 buffer containing protease inhibitors (1 tablet for 25 ml buffer; EDTA-free protease inhibitor cocktail; Roche Diagnostics 1873580) was added in order to reach a final protein concentration of 5 mg/ml total protein. The diluted cell lysate was stored on ice. Mixed Molt4/Ramos lysate was prepared by combining one volume of Molt4 lysate and two volumes of Ramos lysate (ratio 1:2).
(§6) To a 96 well filter plate (Multiscreen HTS, BV Filter Plates, Millipore #MSBVN1250) were added per well: 100 μl affinity matrix (3% beads slurry), 3 μl of compound solution, and 50 μl of diluted lysate. Plates were sealed and incubated for three hours in a cold room on a plate shaker (Heidolph tiramax 1000) at 750 rpm. Afterwards the plate was washed twice with 230 μl washing buffer (1× DP 0.4% NP40). […]

The target in test [2] is T2, JAK2 (Homo sapiens, UniProt O60674).
T2 construct: endogenous in cells; host or cells: Mixed Molt4 / Ramos cell lysate (1:2)
T2 sequence (O60674 whole entry): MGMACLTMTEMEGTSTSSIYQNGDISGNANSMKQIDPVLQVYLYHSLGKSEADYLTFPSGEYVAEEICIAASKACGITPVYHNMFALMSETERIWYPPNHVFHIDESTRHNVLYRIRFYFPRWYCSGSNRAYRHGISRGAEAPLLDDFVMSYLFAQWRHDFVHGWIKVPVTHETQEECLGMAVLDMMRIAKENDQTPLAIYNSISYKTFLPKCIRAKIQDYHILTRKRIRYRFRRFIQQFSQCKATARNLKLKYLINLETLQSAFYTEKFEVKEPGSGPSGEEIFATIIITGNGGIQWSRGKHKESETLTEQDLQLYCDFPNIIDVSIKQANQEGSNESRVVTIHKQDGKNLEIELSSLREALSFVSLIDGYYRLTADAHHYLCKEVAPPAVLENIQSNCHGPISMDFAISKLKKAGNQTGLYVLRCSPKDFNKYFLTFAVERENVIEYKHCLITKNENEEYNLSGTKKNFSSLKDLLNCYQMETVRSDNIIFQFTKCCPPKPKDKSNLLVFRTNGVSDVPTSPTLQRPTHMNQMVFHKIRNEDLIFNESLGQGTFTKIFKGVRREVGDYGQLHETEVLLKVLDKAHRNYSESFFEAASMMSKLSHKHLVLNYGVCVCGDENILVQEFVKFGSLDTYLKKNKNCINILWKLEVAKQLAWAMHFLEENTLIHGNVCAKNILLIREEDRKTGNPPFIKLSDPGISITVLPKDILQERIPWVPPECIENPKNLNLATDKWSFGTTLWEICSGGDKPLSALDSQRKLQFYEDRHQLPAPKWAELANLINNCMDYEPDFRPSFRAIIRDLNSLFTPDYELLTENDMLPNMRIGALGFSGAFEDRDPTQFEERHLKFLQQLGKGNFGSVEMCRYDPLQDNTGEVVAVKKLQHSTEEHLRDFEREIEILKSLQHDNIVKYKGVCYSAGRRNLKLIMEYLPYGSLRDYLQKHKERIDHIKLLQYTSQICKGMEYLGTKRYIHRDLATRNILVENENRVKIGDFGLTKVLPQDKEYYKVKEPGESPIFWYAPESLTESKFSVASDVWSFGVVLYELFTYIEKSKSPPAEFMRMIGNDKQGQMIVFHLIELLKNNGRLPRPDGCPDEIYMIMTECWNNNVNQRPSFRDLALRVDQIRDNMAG
The test can be described thus: kinobeads assay (competition with affinity matrix in mixed Molt4/Ramos cell lysate, dot blot detection), JAK2. Type of test: binding. To be noted: activity level. How it is done: as §1, §2, §3, §4, §5, §6

Each structure is given as a SMILES string.

Consider `CC(C)NC(=O)c1ccc(F)c(Nc2ncc(F)c(Nc3ccccc3NS(C)(=O)=O)n2)c1` [Example 31], for which the IC50 was 100 to 1000 nM in test [1] and more than 10000 nM in test [2]. In the case of `CNC(=O)c1ccc(F)c(Nc2ncc(F)c(Nc3ccccc3NS(C)(=O)=O)n2)c1` [Example 30, 3-(5-fluoro-4-(2-(methylsulfonamido)phenylamino)pyrimidin-2-ylamino)-4-fluoro-N-methybenzamide], the concentration for half-maximal inhibition (IC50) in test [1] was 100 to 1000 nM; in test [2], more than 10000 nM. Taken in the same sequence, the figures for `CCNC(=O)c1ccc(Nc2ncc(Cl)c(Nc3ccccc3NS(C)(=O)=O)n2)c(F)c1` [Example 61, 4-((5-chloro-4-((2-(methylsulfonamido)phenyl)amino)pyrimidin-2-yl)amino)-N-ethyl-3-fluorobenzamide] were less than 100 nM and 1000 to 10000 nM. Taken in the same sequence, the figures for `Cc1cccc(Nc2nc(Nc3cc(-n4cnnn4)ccc3F)ncc2Cl)c1NS(C)(=O)=O` [Example 9, N-(2-(5-chloro-2-(2-fluoro-5-(1H-tetrazol-1-yl)phenylamino)pyrimidin-4-ylamino)-6-methylphenyl)methanesulfonamide] were less than 100 nM and 100 to 1000 nM. For `CS(=O)(=O)Nc1ccccc1Nc1nc(Nc2cc(-n3cnnn3)ccc2F)ncc1Br` [Example 12, N-(2-(5-bromo-2-(2-fluoro-5-(1H-tetrazol-1-yl)phenylamino)pyrimidin-4-ylamino)phenyl)methanesulfonamide] the same measures were less than 100 nM and 100 to 1000 nM. On to `CS(=O)(=O)Nc1ccccc1Nc1nc(Nc2cc(C(=O)NCC#N)ccc2F)ncc1Cl` [Example 25], for which the IC50 was less than 100 nM in test [1] and 1000 to 10000 nM in test [2]. Taken in the same sequence, the figures for `CCNC(=O)c1ccc(F)c(Nc2ncc(Cl)c(Nc3ccccc3NS(=O)(=O)CC(F)(F)F)n2)c1` [Example 44, 3-(5-chloro-4-(2-(2,2,2-trifluoroethylsulfonamido)phenylamino)pyrimidin-2-ylamino)-N-ethyl-4-fluorobenzamide] were 100 to 1000 nM and more than 10000 nM. On to `CCS(=O)(=O)Nc1ccccc1Nc1nc(Nc2cc(C(=O)NC3CC3)ccc2F)ncc1Cl` [Example 42, 3-(5-chloro-4-(2-(ethylsulfonamido)phenylamino)pyrimidin-2-ylamino)-N-cyclopropyl-4-fluorobenzamide], for which the 50% inhibitory concentration (IC50) in test [1] is less than 100 nM; in test [2] it was more than 10000 nM.

As to `CS(=O)(=O)Nc1ccccc1Nc1nc(Nc2cc(-n3cnnn3)ccc2F)ncc1F` [Example 1, N-(2-(5-fluoro-2-(2-fluoro-5-(1H-tetrazol-1-yl)phenylamino)pyrimidin-4-ylamino)phenyl)methanesulfonamide], the IC50 is less than 100 nM in test [1] and 1000 to 10000 nM in test [2].

For `Cc1cccc(Nc2nc(Nc3cc(-n4cnnn4)ccc3F)ncc2F)c1NS(C)(=O)=O` [Example 4, N-(2-(5-fluoro-2-(2-fluoro-5-(1H-tetrazol-1-yl)phenylamino)pyrimidin-4-ylamino)-6-methylphenyl)methanesulfonamide], the IC50 in test [1] is less than 100 nM; in test [2], more than 10000 nM. `CCN(CC)C(=O)c1ccc(F)c(Nc2ncc(Cl)c(Nc3ccccc3NS(C)(=O)=O)n2)c1` [Example 19, 3-(5-chloro-4-(2-(methylsulfonamido)phenylamino)pyrimidin-2-ylamino)-N,N-diethyl-4-fluorobenzamide]: the IC50 in test [1] is 100 to 1000 nM. As for `COCCNC(=O)c1ccc(F)c(Nc2ncc(Cl)c(Nc3ccccc3NS(C)(=O)=O)n2)c1` [Example 53, 3-(5-chloro-4-(2-(methylsulfonamido)phenylamino)pyrimidin-2-ylamino)-4-fluoro-N-(2-methoxyethyl)benzamide], the IC50 in test [1] was less than 100 nM; in test [2], more than 10000 nM.

Consider `CCS(=O)(=O)Nc1ccccc1Nc1nc(Nc2cc(C#N)ccc2F)ncc1Cl` [Example 43, N-(2-(5-chloro-2-(5-cyano-2-fluorophenylamino)pyrimidin-4-ylamino)phenyl)ethanesulfonamide], for which the IC50 was 100 to 1000 nM in test [1] and more than 10000 nM in test [2]. For the molecule `CS(=O)(=O)Nc1c(F)cccc1Nc1nc(Nc2cc(-n3cnnn3)ccc2F)ncc1F` [Example 3, N-(2-fluoro-6-(5-fluoro-2-(2-fluoro-5-(1H-tetrazol-1-yl)phenylamino)pyrimidin-4-ylamino)phenyl)methanesulfonamide], the concentration for half-maximal inhibition (IC50) was less than 100 nM in test [1] and more than 10000 nM in test [2]. For `CNC(=O)c1cccc(Nc2ncc(Cl)c(Nc3ccccc3NS(C)(=O)=O)n2)c1F` [Example 56, 3-(5-chloro-4-(2-(methylsulfonamido)phenylamino)pyrimidin-2-ylamino)-2-fluoro-N-methylbenzamide] the same measures were less than 100 nM and 1000 to 10000 nM. As to `CC(C)NC(=O)c1ccc(F)c(Nc2ncc(Cl)c(Nc3ccccc3NS(C)(=O)=O)n2)c1` [Example 16], the 50% inhibitory concentration (IC50) in test [1] is less than 100 nM.

Turning to `CS(=O)(=O)Nc1ccccc1Nc1nc(Nc2cc(C(N)=O)ccc2F)ncc1Cl` [Example 18, 3-(5-chloro-4-(2-(methylsulfonamido)phenylamino)pyrimidin-2-ylamino)-4-fluorobenzamide], the figures for the IC50 in test [1] and in test [2] were less than 100 nM and more than 10000 nM, respectively. For the molecule `CS(=O)(=O)Nc1ccccc1Nc1nc(Nc2cc(C(=O)NC3CC3)ccc2F)ncc1Cl` [Example 15], in test [1], the IC50 was less than 100 nM. The same measure, in the same setting: the result for `CS(=O)(=O)Nc1ccccc1Nc1nc(Nc2cc(C(=O)N3CCC3)ccc2F)ncc1Cl` [Example 20, N-(2-(2-(5-(azetidine-1-carbonyl-2-fluorophenylamino))-5-chloropyrimidin-4-ylamino)phenyl)methanesulfonamide] reads less than 100 nM.
